# Measured values published in PubChem BioAssay (NCI).
#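 Following 48 hours of exposure in 96-well plates, responses at five concentrations were used to interpolate endpoints linearly. Definition used: TGI = concentration required for complete inhibition of growth.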
# How the values were obtained:
# Assay in all cases: growth of human tumour cells (NCI), 48 h
# [1] = test system: CCRF-CEM leukemia
# [2] = test system: SK-OV-3 ovarian
# [3] = test system: A549 NSCLC
# [4] = test system: SK-MEL-5 melanoma
# [5] = test system: HOP-92 NSCLC
# [6] = test system: HL-60(TB) leukemia
# [7] = test system: HCC-2998 colon
# [8] = test system: COLO 205 colon
# [9] = test system: TK-10 renal
# [10] = test system: SR leukemia
# [11] = test system: UO-31 renal
# [12] = test system: SF-295 CNS
# [13] = test system: HCT-116 colon
# [14] = test system: DMS 273 small cell lung
# [15] = test system: SN12C renal
# [16] = test system: HOP-18 NSCLC
# [17] = test system: SW-620 colon
# [18] = test system: SNB-78 CNS
# [19] = test system: KM12 colon
# [20] = test system: KM20L2 colon
# [21] = test system: K-562 leukemia
# [22] = test system: HCT-15 colon
# [23] = test system: LXFL 529 NSCLC
# [24] = test system: OVCAR-8 ovarian
# [25] = test system: SNB-19 CNS
# [26] = test system: SK-MEL-2 melanoma
# [27] = test system: RPMI-8226 leukemia
# [28] = test system: DMS 114 small cell lung
# [29] = test system: UACC-257 melanoma
# [30] = test system: SF-268 CNS
# [31] = test system: UACC-62 melanoma
# [32] = test system: MOLT-4 leukemia
# [33] = test system: SNB-75 CNS
# [34] = test system: M14 melanoma
# [35] = test system: A498 renal
# [36] = test system: CAKI-1 renal
# [37] = test system: ACHN renal
# [38] = test system: NCI-H460 lung
# [39] = test system: OVCAR-3 ovarian
# [40] = test system: EKVX NSCLC
# [41] = test system: DLD-1 colon
# [42] = test system: IGROV1 ovarian
# [43] = test system: OVCAR-5 ovarian
# [44] = test system: 786-0 renal
# [45] = test system: NCI-H23 lung
# [46] = test system: SF-539 CNS
# [47] = test system: M19-MEL melanoma
# [48] = test system: SK-MEL-28 melanoma
# [49] = test system: NCI-H226 lung
# [50] = test system: HT29 colon
# [51] = test system: HOP-62 NSCLC
# [52] = test system: U251 CNS
# [53] = test system: MALME-3M melanoma
# [54] = test system: RXF 393 renal
smiles,measurement,setting,value
CC(=O)Oc1cc(OC(C)=O)c2c(c1)OC(c1ccc(OC(C)=O)c(OC(C)=O)c1)CC2=O (configuration not stated),TGI,[1],> 100 µM
same,TGI,[2],> 100 µM
same,TGI,[3],> 100 µM
same,TGI,[4],> 100 µM
same,TGI,[5],69.4 µM
same,TGI,[6],29.7 µM
same,TGI,[7],> 100 µM
same,TGI,[8],> 100 µM
same,TGI,[9],> 100 µM
same,TGI,[10],49 µM
same,TGI,[11],> 100 µM
same,TGI,[12],> 100 µM
same,TGI,[13],> 100 µM
same,TGI,[14],> 100 µM
same,TGI,[15],> 100 µM
same,TGI,[16],95.8 µM
same,TGI,[17],> 100 µM
Cc1nc(-n2nc(-c3ccccc3)cc2-c2ccccc2)sc1C(/C=C/c1ccc([N+](=O)[O-])cc1)=N/NC(N)=S,TGI,[18],56.7 µM
same,TGI,[19],> 100 µM
same,TGI,[1],90.2 µM
same,TGI,[2],> 100 µM
same,TGI,[3],> 100 µM
same,TGI,[20],> 100 µM
same,TGI,[21],62.7 µM
same,TGI,[22],> 100 µM
same,TGI,[23],> 100 µM
same,TGI,[24],> 100 µM
same,TGI,[4],> 100 µM
same,TGI,[25],> 100 µM
same,TGI,[5],> 100 µM
same,TGI,[26],> 100 µM
same,TGI,[6],25.6 µM
same,TGI,[27],45 µM
same,TGI,[28],73.5 µM
same,TGI,[29],> 100 µM
same,TGI,[30],> 100 µM
same,TGI,[31],> 100 µM
same,TGI,[7],74 µM
same,TGI,[32],81.4 µM
same,TGI,[33],> 100 µM
same,TGI,[34],> 100 µM
same,TGI,[35],> 100 µM
same,TGI,[36],> 100 µM
same,TGI,[8],> 100 µM
same,TGI,[37],> 100 µM
same,TGI,[9],> 100 µM
same,TGI,[38],> 100 µM
same,TGI,[39],> 100 µM
same,TGI,[40],> 100 µM
same,TGI,[11],> 100 µM
same,TGI,[41],> 100 µM
same,TGI,[12],> 100 µM
same,TGI,[42],> 100 µM
same,TGI,[43],> 100 µM
same,TGI,[13],43.4 µM
same,TGI,[44],43.6 µM
same,TGI,[45],> 100 µM
same,TGI,[46],> 100 µM
same,TGI,[47],> 100 µM
same,TGI,[48],> 100 µM
same,TGI,[15],> 100 µM
same,TGI,[49],> 100 µM
same,TGI,[50],> 100 µM
same,TGI,[51],65.7 µM
same,TGI,[52],> 100 µM
same,TGI,[53],> 100 µM
same,TGI,[54],> 100 µM
